# Experiments:
# CYP1A2 = molecular target: T1, CYP1A2 (Homo sapiens, UniProt P05177); assay: Direct inhibition test (DI test), CYP1A2; assay type: in vitro ADME; conditions: human liver microsomes
# T1 construct: a system of 100 µL of human liver microsomes (final concentration 0.2 mg/mL); from tissue; host or cells: human liver microsomes
# T1 sequence (P05177 1-516): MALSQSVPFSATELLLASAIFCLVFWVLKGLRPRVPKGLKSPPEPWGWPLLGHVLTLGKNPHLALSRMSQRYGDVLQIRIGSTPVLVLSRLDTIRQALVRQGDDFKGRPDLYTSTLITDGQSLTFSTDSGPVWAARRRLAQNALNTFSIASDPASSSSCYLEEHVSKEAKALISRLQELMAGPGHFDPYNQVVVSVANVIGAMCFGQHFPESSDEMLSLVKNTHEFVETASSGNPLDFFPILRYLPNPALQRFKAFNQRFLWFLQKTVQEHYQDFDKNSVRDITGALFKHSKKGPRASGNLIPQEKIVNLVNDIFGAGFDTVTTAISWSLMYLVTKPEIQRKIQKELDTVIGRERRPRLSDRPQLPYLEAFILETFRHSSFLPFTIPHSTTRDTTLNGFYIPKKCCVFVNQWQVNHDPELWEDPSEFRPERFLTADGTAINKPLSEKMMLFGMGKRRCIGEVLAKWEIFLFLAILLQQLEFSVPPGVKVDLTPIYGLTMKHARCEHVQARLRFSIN
# Protocol: Direct inhibition test (DI test): direct inhibition warm incubation was performed with a system of 100 µL of human liver microsomes (final concentration 0.2 mg/mL) containing NADPH (final concentration 1 mM), 10 µM compound, positive inhibitor cocktail (ketoconazole 10 µM, quinidine 10 µM, sulfobenzyrazole 100 µM, α-naphthoflavone 10 µM, tranylcypromine 1000 µM), a negative control (BPS with 0.1% DMSO) and a mixed probe substrate (midazolam 10 µM, testosterone 100 µM, dextromethorphan 10 µM, diclofenac 20 µM, phenacetin100 µM, mephenytoin100 µM), and the reaction was terminated after a warm incubation for 20 min.The relative enzyme activity was calculated by measuring the relative amount of metabolites produced.
# CYP2C8 = molecular target: T2, CYP2C8 (Homo sapiens, UniProt P10632); assay: Direct inhibition test (DI test), CYP2C8; assay type: in vitro ADME; conditions: human liver microsomes
# T2 sequence (P10632 1-490): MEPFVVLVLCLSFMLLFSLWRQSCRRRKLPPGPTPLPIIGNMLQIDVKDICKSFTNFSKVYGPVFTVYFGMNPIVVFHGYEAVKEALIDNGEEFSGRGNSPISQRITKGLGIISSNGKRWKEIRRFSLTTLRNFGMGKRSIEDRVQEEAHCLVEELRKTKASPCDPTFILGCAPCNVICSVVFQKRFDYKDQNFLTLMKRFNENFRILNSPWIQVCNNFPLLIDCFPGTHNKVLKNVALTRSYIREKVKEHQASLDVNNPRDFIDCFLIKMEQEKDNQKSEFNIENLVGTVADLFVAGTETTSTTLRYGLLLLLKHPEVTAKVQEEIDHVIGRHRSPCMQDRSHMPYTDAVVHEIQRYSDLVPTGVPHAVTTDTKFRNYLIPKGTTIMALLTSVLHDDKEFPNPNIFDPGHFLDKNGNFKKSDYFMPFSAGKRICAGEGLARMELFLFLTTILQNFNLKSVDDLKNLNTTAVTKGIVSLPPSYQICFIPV
# [1] = Metabolic stability assay, mouse liver microsomes; assay type: in vitro ADME; conditions: mouse liver microsomes 0.5 mg/mL, 1 µM compound, read-out: Liver microsomal stability (T½ /min) Mouse
# Protocol: (§1) Metabolic stability assay: A warm incubation for metabolic stability was performed with a system of 150 µL of liver microsomes (final concentration 0.5 mg/mL) containing NADPH (final concentration 1 mM), 1 µM of the test compound and positive control midazolam or negative control atenolol, and the reaction was terminated with acetonitrile containing tinidazole at 0 min, 5 min, 10 min and 30 min, respectively. The reaction was vortexed for 10 min and centrifuged at 15000 rmp for 10 min, and 50 µL of supernatant was taken into the 96-well plate for sampling. The metabolic stability of the compound was calculated by measuring the relative reduction of the drugs.
# NCI-H358 cells = assay: Proliferation test method 2 (3D, Cell Titer Glo 3D), NCI-H358; assay type: cell-based; conditions: Homo sapiens, NCI-H358, 96 h, read-out: IC50 cell proliferation inhibitory activity against NCI-H358
# Protocol: (§2) Test method 2 (3D): The tumor cells in the logarithmic growth phase were diluted with culture solution to a certain concentration and inoculated on the 96-well plate on the ultra-low attachment surface, and the culture medium was 80 µL/well. Cells were incubated overnight at 37° C. in a humidity chamber. On the second day, a series of diluted test compounds (10 concentrations, 3 times dilution) were added to the plate, 20 µL/well, incubated in an incubator for 96h.The plates are removed and placed at room temperature and incubated with an equal volume of Cell Titer Glo®3D reagent for 1 h. The signal is detected by the En Vision™ plate reader. […] A four-parameter nonlinear regression curve was fitted to the percent inhibition for each concentration of the compound and the IC50 was calculated.
# MiaPaca-2 cells = assay: Proliferation test method 2 (3D, Cell Titer Glo 3D), MiaPaca-2; assay type: cell-based; conditions: Homo sapiens, MIA PaCa-2, 96 h, read-out: IC50 cell proliferation inhibitory activity against MiaPaca-2
# Protocol: as §2
# [2] = tested on: transplanted tumor of MiaPaca-2, NCI-H358 tumor cells; assay: Growth inhibition of transplanted tumor in nude mice; assay type: in vivo; conditions: 10 mg/kg orally, after two weeks of administration
# Protocol: The tumor tissues in the peak growth period were cut into 1.5 mm^3 and inoculated into the right axillary subcutis of nude mice under aseptic conditions. The subcutaneous transplanted tumors of nude mice were measured by vernier calipers for the diameter of the transplanted tumors, and the animals were randomly grouped when the average volume of the tumors reached about 130 mm^3.The example compound (injection water containing 1% Tween 80 was prepared to the desired concentration and then left to be used) was administered orally at the given dose daily for three weeks, and the solvent control group was given an equal amount of solvent. The transplanted tumor diameter was measured twice a week throughout the experiment, and the mice were weighed at the same time.The tumor volume (TV) was calculated by the formula: TV = ½×a×b^2, where a and b are the length and width, respectively.
# [3] = Metabolic stability assay, human liver microsomes; assay type: in vitro ADME; conditions: human liver microsomes 0.5 mg/mL, 1 µM compound, read-out: Liver microsomal stability (T½ /min) human
# Protocol: as §1
SMILES,IC50 (CYP1A2),IC50 at 20 min (CYP2C8),half-life at 1 µM [1],IC50 (NCI-H358 cells),IC50 (MiaPaca-2 cells),tumor regression [2],half-life at 1 µM [3]
"C=CC(=O)N1CCN(c2c(C#N)c(N3CC(N(C)C)C3)nc3c(F)c(-c4ccc(F)c5sc(N)nc45)c(Cl)cc23)CC1 [Example 21, 4-(4-acryloyl Piperazin-1-yl)-7-(2-Amino-7-Fluorobenzo [d] Thiazol-4-yl) -6-Chloro-2-(3-(Dimethylamino) Azetidine-1-yl)-8-Fluoroquinolin-3 -Cyano]",> 10 µM,> 10 µM,–,–,–,–,–
C=CC(=O)N1CCN(c2c(C#N)cnc3c(F)c(-c4ccc(F)c5sc(N)nc45)c(Cl)cc23)CC1 [Example 8],> 10 µM,> 10 µM,> 30 min,< 0.2 µM,< 0.2 µM,tumor regression was achieved,–
"C=CC(=O)N1C[C@@H]2C(=O)N(C)c3cnc4c(F)c(-c5ccc(F)c6sc(N)nc56)c(Cl)cc4c3N2C[C@H]1C (single isomer, unassigned) [Example 17-1]",> 10 µM,> 10 µM,> 30 min,–,–,–,–
"C=CC(=O)N1CCN(c2c(C#N)c(OC[C@@H]3CCCN3C)nc3c(F)c(-c4ccc(F)c5sc(N)nc45)c(Cl)cc23)CC1 [Example 3, 4-(4-Piperazinylacryloylpiperazin-1-yl)-7-(2-Amino-7-Fluorobenzo[d]Thiazol-4-yl)-6-Chloro-8-Fluoro-2-(((S)-1-Methylpyrrolidin-2-Yl)Methoxy)Quinoline-3-Cyano]",> 10 µM,> 10 µM,–,–,–,–,> 30 min
"C=CC(=O)N1CCN(c2nc(OC[C@@H]3CCCN3C)nc3c(F)c(-c4ccc(F)c5sc(N)nc45)c(Cl)cc23)C[C@H]1C [Example 11, 1-((2R)-4-(7-(2-Amino-7-Fluorobenzo [d] Thiazol-4-yl) -6-Chloro-8-Fluoro-2-(((S)-1-Methylpyrrolidin-2-yl) Methoxy) Quinazolin-4-yl)-2-Methylpiperazin-1-yl) Prop-2-En-1-One]",> 10 µM,> 10 µM,–,< 0.2 µM,< 0.2 µM,–,> 30 min
